Data reported in the NIST ThermoML archive (doi:10.1016/j.fluid.2016.02.009).
Numbers after ± are expanded uncertainties.

Details: Liquid, Vibrating tube method

CCOC(C)(C)C [2-ethoxy-2-methylpropane]
Details | mass density [kg/m3]
283.15 K, 100 kPa | 751.23 ± 0.3
283.15 K, 5000 kPa | 756.42 ± 0.33
283.15 K, 10000 kPa | 761.33 ± 0.36
283.15 K, 15000 kPa | 765.98 ± 0.4
283.15 K, 20000 kPa | 770.36 ± 0.43
283.15 K, 25000 kPa | 774.54 ± 0.46
283.15 K, 30000 kPa | 778.52 ± 0.49
283.15 K, 35000 kPa | 782.33 ± 0.53
283.15 K, 40000 kPa | 785.98 ± 0.57
283.15 K, 45000 kPa | 789.49 ± 0.6
283.15 K, 50000 kPa | 792.89 ± 0.64
283.15 K, 55000 kPa | 796.17 ± 0.67
283.15 K, 60000 kPa | 799.33 ± 0.7
283.15 K, 65000 kPa | 802.42 ± 0.73
288.15 K, 100 kPa | 746.2 ± 0.3
288.15 K, 5000 kPa | 751.53 ± 0.33
288.15 K, 10000 kPa | 756.63 ± 0.36
288.15 K, 15000 kPa | 761.42 ± 0.4
288.15 K, 20000 kPa | 765.93 ± 0.43
288.15 K, 25000 kPa | 770.23 ± 0.47
288.15 K, 30000 kPa | 774.31 ± 0.5
288.15 K, 35000 kPa | 778.21 ± 0.54
288.15 K, 40000 kPa | 781.97 ± 0.57
288.15 K, 45000 kPa | 785.55 ± 0.61
288.15 K, 50000 kPa | 789.02 ± 0.64
288.15 K, 55000 kPa | 792.37 ± 0.68
288.15 K, 60000 kPa | 795.56 ± 0.71
288.15 K, 65000 kPa | 798.71 ± 0.74
293.15 K, 100 kPa | 741.05 ± 0.3
293.15 K, 5000 kPa | 746.6 ± 0.33
293.15 K, 10000 kPa | 751.89 ± 0.37
293.15 K, 15000 kPa | 756.83 ± 0.4
293.15 K, 20000 kPa | 761.5 ± 0.44
293.15 K, 25000 kPa | 765.92 ± 0.47
293.15 K, 30000 kPa | 770.13 ± 0.5
293.15 K, 35000 kPa | 774.13 ± 0.54
293.15 K, 40000 kPa | 777.97 ± 0.58
293.15 K, 45000 kPa | 781.65 ± 0.62
293.15 K, 50000 kPa | 785.19 ± 0.65
293.15 K, 55000 kPa | 788.63 ± 0.69
293.15 K, 60000 kPa | 791.91 ± 0.72
293.15 K, 65000 kPa | 795.1 ± 0.75
298.15 K, 100 kPa | 735.9 ± 0.3
298.15 K, 5000 kPa | 741.67 ± 0.33
298.15 K, 10000 kPa | 747.14 ± 0.37
298.15 K, 15000 kPa | 752.27 ± 0.4
298.15 K, 20000 kPa | 757.08 ± 0.44
298.15 K, 25000 kPa | 761.61 ± 0.47
298.15 K, 30000 kPa | 765.96 ± 0.51
298.15 K, 35000 kPa | 770.04 ± 0.55
298.15 K, 40000 kPa | 773.96 ± 0.59
298.15 K, 45000 kPa | 777.75 ± 0.62
298.15 K, 50000 kPa | 781.37 ± 0.66
298.15 K, 55000 kPa | 784.85 ± 0.69
298.15 K, 60000 kPa | 788.21 ± 0.73
298.15 K, 65000 kPa | 791.48 ± 0.76
303.15 K, 100 kPa | 730.67 ± 0.3
303.15 K, 5000 kPa | 736.68 ± 0.33
303.15 K, 10000 kPa | 742.38 ± 0.37
303.15 K, 15000 kPa | 747.69 ± 0.41
303.15 K, 20000 kPa | 752.63 ± 0.44
303.15 K, 25000 kPa | 757.33 ± 0.48
303.15 K, 30000 kPa | 761.74 ± 0.52
303.15 K, 35000 kPa | 765.95 ± 0.56
303.15 K, 40000 kPa | 769.98 ± 0.59
303.15 K, 45000 kPa | 773.86 ± 0.63
303.15 K, 50000 kPa | 777.57 ± 0.67
303.15 K, 55000 kPa | 781.12 ± 0.7
303.15 K, 60000 kPa | 784.56 ± 0.74
303.15 K, 65000 kPa | 787.89 ± 0.77
308.15 K, 100 kPa | 725.44 ± 0.3
308.15 K, 5000 kPa | 731.69 ± 0.33
308.15 K, 10000 kPa | 737.6 ± 0.37
308.15 K, 15000 kPa | 743.07 ± 0.41
308.15 K, 20000 kPa | 748.18 ± 0.44
308.15 K, 25000 kPa | 753.01 ± 0.48
308.15 K, 30000 kPa | 757.57 ± 0.52
308.15 K, 35000 kPa | 761.9 ± 0.56
308.15 K, 40000 kPa | 766.03 ± 0.6
308.15 K, 45000 kPa | 769.97 ± 0.64
308.15 K, 50000 kPa | 773.76 ± 0.68
308.15 K, 55000 kPa | 777.4 ± 0.71
308.15 K, 60000 kPa | 780.9 ± 0.75
308.15 K, 65000 kPa | 784.29 ± 0.78
313.15 K, 100 kPa | 720.14 ± 0.3
313.15 K, 5000 kPa | 726.68 ± 0.34
313.15 K, 10000 kPa | 732.78 ± 0.37
313.15 K, 15000 kPa | 738.45 ± 0.41
313.15 K, 20000 kPa | 743.71 ± 0.45
313.15 K, 25000 kPa | 748.69 ± 0.48
313.15 K, 30000 kPa | 753.36 ± 0.53
313.15 K, 35000 kPa | 757.81 ± 0.57
313.15 K, 40000 kPa | 762.03 ± 0.61
313.15 K, 45000 kPa | 766.08 ± 0.65
313.15 K, 50000 kPa | 769.94 ± 0.68
313.15 K, 55000 kPa | 773.66 ± 0.72
313.15 K, 60000 kPa | 777.23 ± 0.75
313.15 K, 65000 kPa | 780.69 ± 0.79
318.15 K, 100 kPa | 714.82 ± 0.3
318.15 K, 5000 kPa | 721.59 ± 0.34
318.15 K, 10000 kPa | 727.94 ± 0.37
318.15 K, 15000 kPa | 733.82 ± 0.41
318.15 K, 20000 kPa | 739.27 ± 0.45
318.15 K, 25000 kPa | 744.39 ± 0.49
318.15 K, 30000 kPa | 749.2 ± 0.53
318.15 K, 35000 kPa | 753.76 ± 0.57
318.15 K, 40000 kPa | 758.08 ± 0.61
318.15 K, 45000 kPa | 762.23 ± 0.65
318.15 K, 50000 kPa | 766.19 ± 0.69
318.15 K, 55000 kPa | 769.98 ± 0.73
318.15 K, 60000 kPa | 773.61 ± 0.76
318.15 K, 65000 kPa | 777.13 ± 0.8
323.15 K, 100 kPa | 709.43 ± 0.3
323.15 K, 5000 kPa | 716.51 ± 0.34
323.15 K, 10000 kPa | 723.13 ± 0.38
323.15 K, 15000 kPa | 729.2 ± 0.42
323.15 K, 20000 kPa | 734.81 ± 0.45
323.15 K, 25000 kPa | 740.06 ± 0.49
323.15 K, 30000 kPa | 745.02 ± 0.54
323.15 K, 35000 kPa | 749.69 ± 0.58
323.15 K, 40000 kPa | 754.13 ± 0.62
323.15 K, 45000 kPa | 758.36 ± 0.66
323.15 K, 50000 kPa | 762.39 ± 0.7
323.15 K, 55000 kPa | 766.26 ± 0.74
323.15 K, 60000 kPa | 770 ± 0.77
323.15 K, 65000 kPa | 773.58 ± 0.81
328.15 K, 100 kPa | 703.95 ± 0.3
328.15 K, 5000 kPa | 711.38 ± 0.34
328.15 K, 10000 kPa | 718.21 ± 0.38
328.15 K, 15000 kPa | 724.52 ± 0.42
328.15 K, 20000 kPa | 730.3 ± 0.46
328.15 K, 25000 kPa | 735.75 ± 0.5
328.15 K, 30000 kPa | 740.83 ± 0.54
328.15 K, 35000 kPa | 745.64 ± 0.58
328.15 K, 40000 kPa | 750.18 ± 0.63
328.15 K, 45000 kPa | 754.48 ± 0.67
328.15 K, 50000 kPa | 758.63 ± 0.71
328.15 K, 55000 kPa | 762.55 ± 0.74
328.15 K, 60000 kPa | 766.37 ± 0.78
328.15 K, 65000 kPa | 770.52 ± 0.82
333.15 K, 100 kPa | 698.45 ± 0.3
333.15 K, 5000 kPa | 706.19 ± 0.34
333.15 K, 10000 kPa | 713.35 ± 0.38
333.15 K, 15000 kPa | 719.84 ± 0.42
333.15 K, 20000 kPa | 725.83 ± 0.46
333.15 K, 25000 kPa | 731.42 ± 0.5
333.15 K, 30000 kPa | 736.64 ± 0.55
333.15 K, 35000 kPa | 741.54 ± 0.59
333.15 K, 40000 kPa | 746.21 ± 0.63
333.15 K, 45000 kPa | 750.65 ± 0.67
333.15 K, 50000 kPa | 754.86 ± 0.71
333.15 K, 55000 kPa | 758.88 ± 0.75
333.15 K, 60000 kPa | 762.77 ± 0.79
333.15 K, 65000 kPa | 766.51 ± 0.83
